Measured values taken from US20220160751A1, “METHODS OF TREATMENT OF DISEASES AND DISORDERS ASSOCIATED WITH INCREASED TET LEVEL, INCREASED H19 LEVEL, INCREASED LEVEL OF TGF SIGNALING, OR ANY COMBINATION THEREOF” (YALE UNIVERSITY, priority 2019, published 2022).

Tests used:
[1] = system: mouse primary hepatocytes; assay: qPCR and immunoblotting of gene expression in mouse primary hepatocytes; type: cell-based
Method: (§1) Mouse primary hepatocytes were prepared as previously described (Zhang N et al., 2018, JCI Insight 3:e120304). Cells were maintained in Williams' Medium (GIBCO, 12551) with 5% FBS, 1% 1 M HEPES buffer (GIBCO, 15630-080), 1% L-Glutamine (GIBCO, 25030-081), 1% SPA (GIBCO, 15240-062), 4 mg/L insulin (GIBCO, 12585-014) and 1 μM dexamethasone (Sigma, D4902). For TET3 overexpression experiments, freshly isolated mouse primary hepatocytes were seeded in 12-well collagen 1-coated plates (BD Biosciences Discovery Labware) at 4×10^5 cells/well and infected with Ad-GFP or Ad-TET3 at 4,000 gc/cell at 3 h after seeding. For TET3 or HNF4α P2 isoform knockdown experiments, cells seeded in 12-well plates were infected with AAV-scr, AAV-siTET3, or AAV-siP2 at 6,000 gc/cell at 3 h after seeding. Medium was changed the next day and glucagon was added at a final concentration of 20 nM. Glucose production assays were carried out at 60 h after infection. Human primary hepatocytes (M00995, Millipore, Sigma) were purchased, thawed, and maintained in InVitroGRO™ CP Medium (Sigma-Aldrich, Z990003) containing 2% Torpedo™ Antibiotic Mix. The cells were seeded in 12-well plates coated with collagen 1 (Millipore, 08-115). Infection of AAV-scr, AAV-sihTET3, and AAV-sihP2 were performed the next day after cell thawing and followed the same dosing protocol for the mouse primary hepatocytes.
Total RNAs were extracted from liver or pancreas tissues or from primary hepatocytes using PureLink RNA Mini Kit. cDNA was synthesized using PrimeScript RT Reagent Kit in a 20 μl reaction containing 0.5-1 μg of total RNA. Real-time quantitative PCR was performed in a 15 μl reaction containing 0.5-1 μl of cDNA using iQSYBRGreen in a Bio-Rad iCycler. PCR was performed by initial denaturation at 95° C. for 5 min, followed by 40 cycles of 30 sec at 95° C., 30 sec at 60° C., and 30 sec at 72° C. Specificity was verified by melting curve analysis. The Ct values of each sample were used in the post-PCR data analysis. Gene expression levels were normalized against house-keeping genes GAPDH and RPLP0.
Primary hepatocytes in 12-well plates were dissociated with 0.25% trypsin. After […] centrifugation at 1000 rpm for 5 min, supernatants were discarded and cell pallets were homogenized in 2×SDS-sample buffer (100 ul/well), followed by heating at 100° C. for 5 min, with occasional vortexing. For liver tissue samples, 5 mg of tissues were minced and 200 μl of 2× SDSsample buffer was added, followed by homogenization on ice using a sonicator (Qsonica, Q125-110). Homogenized samples were heated at 100° C. for 5 min and then centrifuged at 12,000 g for 5 min to remove insoluble materials before loading onto 12% SDS gels (5 μl/well), followed by Western blot analysis. Bands on Western blot gels were quantified using ImageJ. GAPDH was used as a loading control.

[2] = system: Hnf4a P2 and P1 promoters; assay: ChIP-qPCR and QMSP of Hnf4a promoters in mouse hepatocytes; type: cell-based
Method: Genomic DNA was extracted from mouse primary hepatocytes grown in 12-well plates using Quick-gDNA MicroPrep (Zymo Research Corporation, D3021) according to the manufacturer's instructions. For bisulfite treatment, 480 ng of DNA was used for each column using EZ DNA Methylation-Gold Kit (Zymo, D5006). 100 μl of elution buffer was used to elute DNA from each column. Real-time quantitative PCR was performed in a 15 μl reaction containing 5 μl of the eluted DNA using iQSYBRGreen in a Bio-Rad iCycler. Two sets of PCR primers were designed: one for unmethylated and one for methylated DNA sequences. The PCR primers for methylated DNA were used at a final concentration of 0.6 μM in each PCR reaction. PCR was performed by initial denaturation at 95° C. for 5 min, followed by 40 cycles of 30 sec at 95° C., 30 sec at 60° C., and 30 sec at 72° C. Specificity was verified by melting curve analysis. The threshold cycle (Ct) values of each sample were used in the post-PCR data analysis. The ratio of methylated versus unmethylated DNA sequences are presented.
Experiments were performed in a 12-well plate scale using the Pierce Agarose ChIP Kit (Thermo Scientific, 26156) according to the manufacturer's instructions with minor modifications. Briefly, agarose beads were used to pre-bind with antibodies (anti-TET3, anti-Ser-5(P)-RNAP, or pre-immune IgGs as negative controls) overnight at 4° C. The next day, hepatocytes were crosslinked with 1% formaldehyde at room temperature for 10 min, and the reaction was stopped by 1×glycine. ChIPs were carried out overnight at 4° C. Levels of ChIP-purified DNA were determined with qPCR (see Table 1 for primer sequences). The relative enrichments of the indicated DNA regions were calculated using the Percent Input Method according to the manufacturer's instructions and are presented as % input.

[3] = system: primary human hepatocytes; assay: qPCR of gene expression in primary human hepatocytes; type: cell-based; conditions: glucagon 20 nM vs vehicle
Method: as §1, with “Human primary hepatocytes (M00995, Millipore, Sigma) were purchased, thawed, and maintained in InVitroGRO™ CP Medium (Sigma-Aldrich, Z990003) containing 2% Torpedo™ Antibiotic Mix. The cells were seeded in 12-well plates coated with collagen 1 (Millipore, 08-115). Infection of AAV-scr, AAV-sihTET3, and AAV-sihP2 were performed the next day after cell thawing and followed the same dosing protocol for the mouse primary hepatocytes.” left out
Total RNAs were extracted from liver or pancreas tissues or from primary hepatocytes using PureLink RNA Mini Kit. cDNA was synthesized using PrimeScript RT Reagent Kit in a 20 μl reaction containing 0.5-1 μg of total RNA. Real-time quantitative PCR was performed in a 15 μl reaction containing 0.5-1 μl of cDNA using iQSYBRGreen in a Bio-Rad iCycler. […]

HUVECs = assay: RT-qPCR and Western blot of gene expression in HUVECs; type: cell-based, human; conditions: for H19 expression (RT-qPCR): overnight treatment vs vehicle
Method: HUVECs (Lonza, CC-2517) were maintained in a growth medium composed of endothelial basal medium (EBM-2, CC-3156) supplemented with EGM-2 MV BulletKit (CC-4147, Lonza). Cells were used between passages P2-P5. For cytokine treatment, cells were incubated overnight with indicated concentrations of TNF-α, TNF-α plus IL-1β, or Hcy in endothelial basal medium. Cells were transfected in a 24-well plate scale. To prepare siRNA transfection solution for each well, 10 pmol of siCon, siH19, or siTET1 were mixed with 25 μl of OPTI-MEM by gentle pipetting. In parallel, 1 μl of Lipofectamine 3000 was mixed with 25 μl of OPTI-MEM. Following 5 min of incubation at RT, the two were mixed by gentle pipetting and incubated for 10 min at RT to allow siRNA/lipid complexes to form. At the end of incubation, the 50 μl of transfection solution was used to resuspend cell pellet (3×10^4 cells/well). After incubation at room temperature (RT) for 10 min, growth medium was added at a ratio of 1:9 (1 volume of transfection solution/9 volumes of growth medium) and the cell suspension was transferred to a culture plate. For cytokine treatment combined with H19 knockdown, cells were transfected with siCon or siH19 for 24 h, followed by addition of TNF-α at a final concentration of 10 ng/ml for an additional 24 h before RNA extraction. For iLet 7 rescue experiments, 10 pmol of siCon+iCon, iCon+siH19, or siH19+iLet7 were used for each well of 3×10^4 cells. Forty-eight hours after the transfection, RNA and protein were extracted for analysis.
To prepare DNA/lipid complexes for pH19/pTET1 overexpression (FIG. 23) or pTET1 overexpression rescue (FIG. 22) experiments, empty vector (0.5 μg), pH19 ([…]), or pTET1 (0.75 μg) were mixed with 1 μl of P3000 in 25 μl of OPTI-MEM by gentle pipetting. In parallel, 0.75 μl of Lipofectamin 3000 was mixed with 25 μl of OPTI-MEM. The contents in the two tubes were mixed by gentle pipetting and incubated at RT for 5 min. The resulting DNA/lipid complexes (50 μl) were added to one well of cells (8×10^4) which had been seeded in a 24-well plate in growth medium the night before. Following incubation at RT for 10 min, 300 μl of OPTI-MEM was added and cells were incubated in a tissue culture incubator for 4-6 h. […]
HUVECs in 24-well plates were dissociated with 0.25% trypsin. […] Bands on Western blot gels were quantified using ImageJ. […]
Total RNAs were extracted using PureLink RNA Mini Kit (Ambion, catalog number 12183018A). cDNA was synthesized using PrimeScript RT Reagent Kit (TAKARA, RR037A) in a 20 μl reaction containing 0.5-1 μg of total RNA. Real-time quantitative PCR was performed in a 15 μl reaction containing 0.5-1 μl of cDNA using iQSYBRGreen (Bio-Rad) in a Bio-Rad iCycler. […]

[4] = system: UtLM and ht-UtLM leiomyoma cells; assay: RT-qPCR and Western blot of gene expression in leiomyoma cells; type: cell-based, human; conditions: ht-UtLM cells, 24 h, 10^−8M
Excerpt: Antibodies for TET3 (GeneTex, GTX121453; used at a dilution of 1/500), TGFBR2 (Abcam, ab184948; used at a dilution of 1/1000), TSP1 (Abcam, ab85762; used at a dilution of 1/500), MED12 (Novus Biological, NB100-2357; used at a dilution of 1/500), HMGA2 (Proteintech, 20795-1-AP; used at a dilution of 1/500), GRAF1 (Cell Signaling, 8802; used at a dilution of 1/500), SPARC (Cell Signaling, 8725; used at a dilution of 1/500), COL3A1 (LS-Bio, LS-C159386; used at a dilution of 1/1000), COL4A1 (LS-Bio, LS-C100552; used at a dilution of 1/500), COL5A2 (Origene, TA809611; used at a dilution of 1/500) and GAPDH (Abcam, ab128915; used at a dilution of 1/10000) were purchased. Human H19 siRNA (siH19) and control siRNA (siCon) were previously described (Ghazal S et al., 2015, EMBO Mol Med 7:996-1003). siTET3 (Ambion, 4392420/s47239), estradiol ([…], Sigma), and progesterone ([…], Sigma) were purchased. Estradiol and progesterone were dissolved in DMSO and used at a final concentration of 10^-8M. ht-UtLM cells tested negative for mycoplasma contamination were maintained in MEM (Sigma, #M3024) supplemented with 20% fetal bovine serum, 1×MEM Vitamin Solution (Invitrogen #11120-052), 1×MEM Amino Acids Solution (Invitrogen, #11130-051), and 1×MEM Non-Essential Amino Acids (Invitrogen #11140-050). Primary UtLM-1 and UtLM-2 cells were maintained in DMEM (Gibco, #10567014) supplemented with 20% fetal bovine serum, and 1% penicillin/streptomycin, 1% amphotericin B. All cells were transfected in a 24-well plate scale. To prepare siRNA transfection solution for each well, 10 pmol (5 pmol for primary cells) of siCon, siH19, or siTET3 were mixed with 25 μl of OPTI-MEM by gentle pipetting. In parallel, 1 μl of Lipofectamine 3000 was mixed with 25 μl of OPTI-MEM. Following 5 min of incubation at room temperature, the two were mixed by gentle inverting and incubated for 10 min at room temperature to allow siRNA/lipid complexes to form. At the end of incubation, the 50 μl of transfection solution was used to re-suspend the cell pellet (3×10^4 cells). After incubation at room temperature for 10 min, growth medium was added at a ratio of 1:9 (1 volume of transfection solution/9 volumes of growth medium), and the cell suspension was transferred to a new culture dish. After overnight incubation in a tissue culture incubator, the medium was replaced with fresh growth medium. For iLet 7 rescue experiments, 10 pmol of siCon/siH19 and 10 pmol of iCon/iLet7 were used for each well of 3×10^4 cells. RNA, genomic DNA, and protein were extracted and analyzed at the indicated time points following transfection.

[5] = glucagon-stimulated versus vehicle treated hepatocytes

Compound: glucagon
- HNF4α P2 usage (qPCR) ([1]; H19 KO hepatocytes, glucagon 20 nM 24 h): failed to do so
- Tet3 expression (qPCR) ([1]; H19 KO primary hepatocytes, glucagon 20 nM 24 h): no longer stimulated Tet3 expression
- Pck1 and G6pc expression (qPCR) ([1]; WT hepatocytes, glucagon 20 nM vs vehicle): increased expression of Pck1 and G6pc
- HNF4α P2 and P1 isoform expression (qPCR) ([1]; WT primary hepatocytes): increased P2 usage in WT hepatocytes
- H19 and Tet3 expression (qPCR) ([1]; WT primary hepatocytes, glucagon 20 nM 24 h or AAV-H19 48 h without glucagon): readily induced
- binding of TET3 to Hnf4a promoters (ChIP-qPCR) ([2]; glucagon 20 nM 24 h vs vehicle): dramatically increased binding of TET3 to P2 but not P1
- methylation of P2 (QMSP) ([2]; glucagon 20 nM 24 h vs vehicle): significantly decreased methylation of P2
- RNAP association with P1 (ChIP) [2, 5]: no change in RNAP association with P1
- enrichment in RNAP at the P2 promoter (ChIP) [2, 5]: approximately 5 fold
- HNF4α expression from P2 and P1 [3]: stimulated expression from P2 (but not P1)
- expression of PCK1 and G6PC [3]: increased expression of PCK1 and G6PC

Compound: N[C@@H](CCS)C(=O)O [Hcy, L-Homocysteine]
- H19 expression (RT-qPCR) (HUVECs): dose-dependently upregulates H19

Compound: CC(=O)[C@H]1CC[C@H]2[C@@H]3CCC4=CC(=O)CC[C@]4(C)[C@H]3CC[C@]12C [progesterone]
- H19 expression [4]: did not affect H19 expression

Compound: TNF-α
- expression of TET1, TGFBR2 and TSP1 (RT-qPCR) (HUVECs; TNF-α 10 ng/ml 24 h vs vehicle): upregulated expression of TET1, TGFBR2 and TSP1
- H19 expression (RT-qPCR) (HUVECs): stimulates H19 expression in a dose-dependent manner

Compound: IL-1β: Recombinant human IL-1β (R&D Systems, 201-LB), combined with TNF-α
- H19 expression (RT-qPCR) (HUVECs): additive effect
